Data: patent US10316017B2, “COT modulators and methods of use thereof” (Gilead Sciences, Inc., priority 2015, dated 2019)

Assays:
[1] = system: TNFα production in LPS-stimulated human monocytes; assay: Cot Monocyte TNFα Cell Based Assay; conditions: Homo sapiens, Monocyte, TNFα in LPS-stimulated human monocytes; read-out: EC50 TNF
Procedure, shortened: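 Percent-of-control values derive from TR-FRET ratios of TNFα in spun-down media, referenced to unstimulated and LPS-stimulated wells. Exposure: 1 h compound preincubation, then 50 pg/ml LPS for 4 h, both at 37 °C, with 0.5% final DMSO.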

[2] = target: T1, human Cot catalytic domain (30-397 amino acids) (Homo sapiens, UniProt P41279); assay: High Throughput Cot Biochemical Assay (KinEASE TR-FRET); conditions: Cot biochemical HTRF (KinEASE TR-FRET) assay; read-out: IC50 HTRF
T1 construct: Purified recombinant human Cot catalytic domain (30-397 amino acids) was purchased from Cama Biosciences; purchased Cama Biosciences (so in the source)
Procedure, shortened: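 Phosphorylation of 1 μM XL665-STK3 peptide by 5 nM Cot catalytic domain was measured by time-resolved FRET using a europium […] antibody. ATP was 400 μM; buffer was 10 mM MOPS pH 7.0 with Mg2+ and DTT.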

T1 sequence (P41279 30-397): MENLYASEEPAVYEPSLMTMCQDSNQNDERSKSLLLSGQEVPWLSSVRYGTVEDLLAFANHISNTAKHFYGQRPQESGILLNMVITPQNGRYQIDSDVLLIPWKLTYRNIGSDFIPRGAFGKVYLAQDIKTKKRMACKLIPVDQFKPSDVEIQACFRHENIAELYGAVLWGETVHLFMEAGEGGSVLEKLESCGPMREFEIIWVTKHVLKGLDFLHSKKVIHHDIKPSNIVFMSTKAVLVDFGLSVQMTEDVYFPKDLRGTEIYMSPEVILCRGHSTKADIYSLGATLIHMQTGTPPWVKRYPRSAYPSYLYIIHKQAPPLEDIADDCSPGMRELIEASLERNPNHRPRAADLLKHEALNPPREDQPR

| SMILES | EC50 [1] | IC50 [2] |
| --- | --- | --- |
| CCN1CCC(n2cc([C@@H](Nc3cc(F)c4ncc(C#N)c(Nc5ccc(F)c(Cl)c5)c4c3)c3ccc(Cl)cc3)nn2)CC1 [Example 813, (S)-4-((3-chloro-4-fluorophenyl)amino)-6-(((4-chlorophenyl)(1-(1-ethylpiperidin-4-yl)-1H-1,2,3-triazol-4-yl)methyl)amino)-8-fluoroquinoline-3-carbonitrile] | 116 nM | 6 nM |
| N#Cc1cnc2c(F)cc(N[C@@H](c3ccc(Cl)cc3)c3cn(C4CCNCC4)nn3)cc2c1Nc1ccc(F)c(Cl)c1 [Example 814, (S)-4-((3-chloro-4-fluorophenyl)amino)-6-(((4-chlorophenyl)(1-(piperidin-4-yl)-1H-1,2,3-triazol-4-yl)methyl)amino)-8-fluoroquinoline-3-carbonitrile] | 704 nM | 10 nM |
| N#Cc1cnc2c(Cl)cc(N[C@@H](c3ccc(F)cc3)c3c[nH]nn3)cc2c1Nc1ccc(F)c(Cl)c1 [Example 819, (S)-8-chloro-4-((3-chloro-4-fluorophenyl)amino)-6-(((4-fluorophenyl)(1H-1,2,3-triazol-4-yl)methyl)amino)quinoline-3-carbonitrile] | 426 nM | 22 nM |
| CN(C)C(=O)CN1CCC(n2cc([C@@H](Nc3cc(Cl)c4ncc(C#N)c(Nc5ccc(F)c(Cl)c5)c4c3)c3ccc(F)cc3)nn2)CC1 [Example 824, (S)-2-(4-(4-(((8-chloro-4-((3-chloro-4-fluorophenyl)amino)-3-cyanoquinolin-6-yl)amino)(4-fluorophenyl)methyl)-1H-1,2,3-triazol-1-yl)piperidin-1-yl)-N,N-dimethylacetamide] | 450 nM | 58 nM |
| CC(C)N1CCC(n2cc([C@@H](Nc3cc(Cl)c4ncc(C#N)c(Nc5ccc(F)c(Cl)c5)c4c3)c3ccc(F)cc3)nn2)CC1 [Example 825, (S)-8-chloro-4-((3-chloro-4-fluorophenyl)amino)-6-(((4-fluorophenyl)(1-(1-isopropylpiperidin-4-yl)-1H-1,2,3-triazol-4-yl)methyl)amino)quinoline-3-carbonitrile] | 150 nM | 4 nM |
| N#Cc1cnc2c(Cl)cc(N[C@@H](c3ccc(F)cc3)c3cn(C4CCN(CC(F)(F)F)CC4)nn3)cc2c1Nc1ccc(F)c(Cl)c1 [Example 828, (S)-8-chloro-4-((3-chloro-4-fluorophenyl)amino)-6-(((4-fluorophenyl)(1-(1-(2,2,2-trifluoroethyl)piperidin-4-yl)-1H-1,2,3-triazol-4-yl)methyl)amino)quinoline-3-carbonitrile] | 1150 nM | 297 nM |
| CC(C)(C)N1CCC(n2cc([C@@H](Nc3cc(Cl)c4ncc(C#N)c(Nc5ccc(F)c(Cl)c5)c4c3)c3ccccc3)nn2)CC1 [Example 831, (S)-6-(((1-(1-(tert-butyl)piperidin-4-yl)-1H-1,2,3-triazol-4-yl)(phenyl)methyl)amino)-8-chloro-4-((3-chloro-4-fluorophenyl)amino)quinoline-3-carbonitrile] | 381 nM | 10 nM |
| CC(C)(C)N1CCC(n2cc([C@@H](Nc3cc(Cl)c4ncc(C#N)c(Nc5ccc(F)c(Cl)c5)c4c3)c3ccc(F)cc3)nn2)CC1 [Example 836, (S)-6-(((1-(1-(tert-butyl)piperidin-4-yl)-1H-1,2,3-triazol-4-yl)(4-fluorophenyl)methyl)amino)-8-chloro-4-((3-chloro-4-fluorophenyl)amino)quinoline-3-carbonitrile] | 241 nM | 8 nM |
| Cn1cc([C@@H](Nc2cc(Cl)c3ncc(C#N)c(Nc4ccc(F)c(Cl)c4)c3c2)c2cccc(CN3CCCC3)c2)nn1 [Example 841, (S)-8-chloro-4-((3-chloro-4-fluorophenyl)amino)-6-(((1-methyl-1H-1,2,3-triazol-4-yl)(3-(pyrrolidin-1-ylmethyl)phenyl)methyl)amino) quinoline-3-carbonitrile] | 141 nM | 8 nM |
| Cn1cc([C@H](Nc2cc(Cl)c3ncc(C#N)c(Nc4ccc(F)c(Cl)c4)c3c2)c2cccc(CN3CCCC3)c2)nn1 [Example 842, (R)-8-chloro-4-((3-chloro-4-fluorophenyl)amino)-6-(((1-methyl-1H-1,2,3-triazol-4-yl)(3-(pyrrolidin-1-ylmethyl)phenyl)methyl)amino) quinoline-3-carbonitrile] | 22100 nM | 998 nM |
| Cn1ccnc1C(Nc1cc(Cl)c2ncc(C#N)c(Nc3ccc(F)c(Cl)c3)c2c1)c1ccc(F)cc1 (stereo not shown) [Example 847, 8-chloro-4-((3-chloro-4-fluorophenyl)amino)-6-(((4-fluorophenyl)(1-methyl-1H-imidazol-2-yl)methyl)amino)quinoline-3-carbonitrile] | 7860 nM | 366 nM |
| CCN1CCC(n2cc([C@H](Nc3cc(Cl)c4ncc(C#N)c(Nc5ccc(F)c(Cl)c5)c4c3)c3ccc(F)cc3)nn2)CC1 [Example 849, (R)-8-chloro-4-((3-chloro-4-fluorophenyl)amino)-6-(((1-(1-ethylpiperidin-4-yl)-1H-1,2,3-triazol-4-yl)(4-fluorophenyl)methyl)amino) quinoline-3-carbonitrile] | 6280 nM | 687 nM |
| Cn1cc(C(Nc2cc(Cl)c3ncc(C#N)c(Nc4ccc(F)c(Cl)c4)c3c2)c2ccc(F)cc2)cn1 (stereo not shown) [Example 853, 8-chloro-4-((3-chloro-4-fluorophenyl)amino)-6-(((4-fluorophenyl)(1-methyl-1H-pyrazol-4-yl)methyl)amino)quinoline-3-carbonitrile] | > 1000 nM | 6300 nM |
| Cn1cnnc1C(Nc1cc(Cl)c2ncc(C#N)c(Nc3ccc(F)c(Cl)c3)c2c1)c1ccc(F)cc1 (stereo not shown) [Example 854, 8-chloro-4-((3-chloro-4-fluorophenyl)amino)-6-(((4-fluorophenyl)(4-methyl-4H-1,2,4-triazol-3-yl)methyl)amino)quinoline-3-carbonitrile] | > 10000 nM | 469 nM |
| CCN1CCC(n2cc([C@@H](Nc3cc(Cl)c4ncc(C#N)c(Nc5ccc(F)c(Cl)c5)c4c3)c3ccc(Cl)cc3)nn2)CC1 [Example 858, (S)-8-chloro-4-((3-chloro-4-fluorophenyl)amino)-6-(((4-chlorophenyl)(1-(1-ethylpiperidin-4-yl)-1H-1,2,3-triazol-4-yl)methyl)amino)quinoline-3-carbonitrile] | 99 nM | 8 nM |
| N#Cc1cnc2c(Cl)cc(N[C@@H](c3ccc(Cl)cc3)c3cn(C4CCNCC4)nn3)cc2c1Nc1ccc(F)c(Cl)c1 [Example 859, (S)-8-chloro-4-((3-chloro-4-fluorophenyl)amino)-6-(((4-chlorophenyl)(1-(piperidin-4-yl)-1H-1,2,3-triazol-4-yl)methyl)amino)quinoline-3-carbonitrile] | 533 nM | 12 nM |
| Cn1cnc(C(Nc2cc(Cl)c3ncc(C#N)c(Nc4ccc(F)c(Cl)c4)c3c2)c2ccc(F)c(F)c2)c1 (stereo not shown) [Example 869, 8-chloro-4-((3-chloro-4-fluorophenyl)amino)-6-(((3,4-difluorophenyl)(1-methyl-1H-imidazol-4-yl)methyl)amino)quinoline-3-carbonitrile] | 2760 nM | 125 nM |
| N#Cc1cnc2c(Cl)cc(NC(c3ccc(Cl)cc3)c3cn(C4CNC4)nn3)cc2c1Nc1ccc(F)c(Cl)c1 (stereo not shown) [Example 872, 6-(((1-(azetidin-3-yl)-1H-1,2,3-triazol-4-yl)(4-chlorophenyl)methyl)amino)-8-chloro-4-((3-chloro-4-fluorophenyl)amino)quinoline-3-carbonitrile] | 1310 nM | 41 nM |
| Cn1cc(C(Nc2cc(Cl)c3ncc(C#N)c(Nc4ccc(F)c(Cl)c4)c3c2)c2ccc(Cl)cc2)nn1 (stereo not shown) [Example 881, 8-chloro-4-((3-chloro-4-fluorophenyl)amino)-6-(((4-chlorophenyl)(1-methyl-1H-1,2,3-triazol-4-yl)methyl)amino)quinoline-3-carbonitrile] | 673 nM | 39 nM |
| Cn1cc(C(Nc2cc(Cl)c3ncc(C#N)c(Nc4ccc(F)c(Cl)c4)c3c2)c2ccc(F)cc2)nn1 (stereo not shown) [Example 882, 8-chloro-4-((3-chloro-4-fluorophenyl)amino)-6-(((4-fluorophenyl)(1-methyl-1H-1,2,3-triazol-4-yl)methyl)amino)quinoline-3-carbonitrile] | 321 nM | 20 nM |
| Cc1cc(F)ccc1C(Nc1cc(Cl)c2ncc(C#N)c(Nc3ccc(F)c(Cl)c3)c2c1)c1cn(C2CCNCC2)nn1 (stereo not shown) [Example 884, 8-chloro-4-((3-chloro-4-fluorophenyl)amino)-6-(((4-fluoro-2-methylphenyl) (1-(piperidin-4-yl)-1H-1,2,3-triazol-4-yl)methyl)amino)quinoline-3-carbonitrile] | 466 nM | 11 nM |
| CCN1CCC(n2cc(C(Nc3cc(Cl)c4ncc(C#N)c(Nc5ccc(F)c(Cl)c5)c4c3)c3ccc(F)cc3C)nn2)CC1 (stereo not shown) [Example 885, 8-chloro-4-((3-chloro-4-fluorophenyl)amino)-6-(((1-(1-ethylpiperidin-4-yl)-1H-1,2,3-triazol-4-yl)(4-fluoro-2-methylphenyl)methyl)amino) quinoline-3-carbonitrile] | 287 nM | 9 nM |
| Cn1cnc(C(Nc2cc(Cl)c3ncc(C#N)c(Nc4ccc(F)c(Cl)c4)c3c2)c2ccc(F)cc2)c1 (stereo not shown) [Example 887, 8-chloro-4-((3-chloro-4-fluorophenyl)amino)-6-(((4-fluorophenyl)(1-methyl-1H-imidazol-4-yl)methyl)amino)quinoline-3-carbonitrile] | 1890 nM | 70 nM |
